From PubChem BioAssay AID1963421 (Molecular Pharmacology Branch, DTP, NCI, 2024)
Several values for one entry are separate records, joined by “and”; a condition that tells them apart may be missing. Equal values may be shown once.

System: 519858-162-T-J1-PDC complex spheroid growth, % test/control
Assay: Anticancer human tumor 519858-162-T-J1-PDC patient-derived colon adenocarcinoma cell line growth inhibition [Asc]
Conditions: for viability, T/C: stronger effect = lower value
In short: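 Concentration series start at each agent's clinical Cmax, or at 10 microM when none is established, and drop in half-log steps; agents are applied alone or together to complex spheroids built with HUVEC and hMSC.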

[1] = curve of first compound, second compound 0.00316 µM
[2] = curve of first compound, second compound 0.01 µM
[3] = curve of first compound, second compound 0.0316 µM
[4] = curve of first compound, second compound 0.1 µM
[5] = curve of first compound, second compound 0.316 µM
[6] = curve of first compound, second compound 1 µM
[7] = second compound 0.00316 µM, first compound 0.00316 µM
[8] = second compound 0.00316 µM, first compound 0.01 µM
[9] = second compound 0.00316 µM, first compound 0.0316 µM
[10] = second compound 0.00316 µM, first compound 0.1 µM
[11] = second compound 0.00316 µM, first compound 0.316 µM
[12] = second compound 0.00316 µM, first compound 1 µM
[13] = second compound 0.01 µM, first compound 0.00316 µM
[14] = second compound 0.01 µM, first compound 0.01 µM
[15] = second compound 0.01 µM, first compound 0.0316 µM
[16] = second compound 0.01 µM, first compound 0.1 µM
[17] = second compound 0.01 µM, first compound 0.316 µM
[18] = second compound 0.01 µM, first compound 1 µM
[19] = second compound 0.0316 µM, first compound 0.00316 µM
[20] = second compound 0.0316 µM, first compound 0.01 µM
[21] = second compound 0.0316 µM, first compound 0.0316 µM
[22] = second compound 0.0316 µM, first compound 0.1 µM
[23] = second compound 0.0316 µM, first compound 0.316 µM
[24] = second compound 0.0316 µM, first compound 1 µM
[25] = second compound 0.1 µM, first compound 0.00316 µM
[26] = second compound 0.1 µM, first compound 0.01 µM
[27] = second compound 0.1 µM, first compound 0.0316 µM
[28] = second compound 0.1 µM, first compound 0.1 µM
[29] = second compound 0.1 µM, first compound 0.316 µM
[30] = second compound 0.1 µM, first compound 1 µM
[31] = second compound 0.316 µM, first compound 0.00316 µM
[32] = second compound 0.316 µM, first compound 0.01 µM
[33] = second compound 0.316 µM, first compound 0.0316 µM
[34] = second compound 0.316 µM, first compound 0.1 µM
[35] = second compound 0.316 µM, first compound 0.316 µM
[36] = second compound 0.316 µM, first compound 1 µM
[37] = second compound 1 µM, first compound 0.00316 µM
[38] = second compound 1 µM, first compound 0.01 µM
[39] = second compound 1 µM, first compound 0.0316 µM
[40] = second compound 1 µM, first compound 0.1 µM
[41] = second compound 1 µM, first compound 0.316 µM
[42] = second compound 1 µM, first compound 1 µM
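Also: seven day drug exposure begun three days after spheroid seeding.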
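For viability, T/C in this document: 100% = DMSO vehicle wells and lower values mean less viable spheroid.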

In the case of `NC1CCC(NC2CC2c2ccccc2)CC1` (stereo unspecified) + CCN1C(C(=O)NC23CCC(C(=O)O)(CC2)CC3)C(c2cccc(Cl)c2F)C2(C(=O)Nc3cc(Cl)ccc32)C12CCCCC2, the IC50 (curve of first compound, second compound 0.00949 µM) is reported as > 100 nM, the IC50 (curve of first compound, second compound 0.03 µM) is reported as > 100 nM and the IC50 (curve of first compound, second compound 0.0949 µM) is reported as > 100 nM. For the same compound, the IC50 (curve of first compound, second compound 0.3 µM) was > 100 nM, the IC50 (curve of first compound, second compound 0.949 µM) was > 100 nM and the IC50 (curve of first compound, second compound 3 µM) was > 100 nM. For the same compound, the viability, T/C (second compound 0.00949 µM, first compound 0.000316 µM) was 101%, the viability, T/C (second compound 0.00949 µM, first compound 0.001 µM) was 129% and the viability, T/C (second compound 0.00949 µM, first compound 0.00316 µM) was 130%. The viability, T/C (second compound 0.00949 µM, first compound 0.01 µM) was 112%, the viability, T/C (second compound 0.00949 µM, first compound 0.0316 µM) was 107% and the viability, T/C (second compound 0.00949 µM, first compound 0.1 µM) was 92.4%. The viability, T/C (second compound 0.03 µM, first compound 0.000316 µM) was 146%, the viability, T/C (second compound 0.03 µM, first compound 0.001 µM) was 149% and the viability, T/C (second compound 0.03 µM, first compound 0.00316 µM) was 101%. For the same compound, the viability, T/C (second compound 0.03 µM, first compound 0.01 µM) was 84.1%, the viability, T/C (second compound 0.03 µM, first compound 0.0316 µM) was 70.2% and the viability, T/C (second compound 0.03 µM, first compound 0.1 µM) was 110%. It also gave a viability, T/C (second compound 0.0949 µM, first compound 0.000316 µM) of 136%, a viability, T/C (second compound 0.0949 µM, first compound 0.001 µM) of 127% and a viability, T/C (second compound 0.0949 µM, first compound 0.00316 µM) of 136%. The viability, T/C (second compound 0.0949 µM, first compound 0.01 µM) was 124%, the viability, T/C (second compound 0.0949 µM, first compound 0.0316 µM) was 128% and the viability, T/C (second compound 0.0949 µM, first compound 0.1 µM) was 107%. It also gave a viability, T/C (second compound 0.3 µM, first compound 0.000316 µM) of 101%, a viability, T/C (second compound 0.3 µM, first compound 0.001 µM) of 82% and a viability, T/C (second compound 0.3 µM, first compound 0.00316 µM) of 99.6%. It also gave a viability, T/C (second compound 0.3 µM, first compound 0.01 µM) of 95.7%, a viability, T/C (second compound 0.3 µM, first compound 0.0316 µM) of 95.4% and a viability, T/C (second compound 0.3 µM, first compound 0.1 µM) of 129%. The viability, T/C (second compound 0.949 µM, first compound 0.000316 µM) was 97.5%, the viability, T/C (second compound 0.949 µM, first compound 0.001 µM) was 83.1% and the viability, T/C (second compound 0.949 µM, first compound 0.00316 µM) was 117%. For the same compound, the viability, T/C (second compound 0.949 µM, first compound 0.01 µM) was 89.1%, the viability, T/C (second compound 0.949 µM, first compound 0.0316 µM) was 89.9% and the viability, T/C (second compound 0.949 µM, first compound 0.1 µM) was 91%. For the same compound, the viability, T/C (second compound 3 µM, first compound 0.000316 µM) was 66.9%, the viability, T/C (second compound 3 µM, first compound 0.001 µM) was 86.8% and the viability, T/C (second compound 3 µM, first compound 0.00316 µM) was 74.4%. The viability, T/C (second compound 3 µM, first compound 0.01 µM) was 66.3%, the viability, T/C (second compound 3 µM, first compound 0.0316 µM) was 74.3% and the viability, T/C (second compound 3 µM, first compound 0.1 µM) was 89.2%.
For `Cc1c(S(C)(=O)=O)c(-c2cc(F)cc(N3CCN(c4ccc(NS(=O)(=O)c5ccc(NC(CCN6CCC(C(=O)OCCCP(=O)(O)O)CC6)CSc6ccccc6)c(S(=O)(=O)C(F)(F)F)c5)cc4)CC3)c2)c(-c2ccc(Cl)cc2)n1C(C)C` (stereo unspecified), the viability, T/C (compound 0.0316 µM) was 89.8% [middle of 7 runs], the viability, T/C (compound 1 µM) was 95.1% [middle of 7 runs] and the IC50 (compound alone, run of 11/07/2022) was > 10000 nM.
For `Cn1ncnc1[C@H]1c2n[nH]c(=O)c3cc(F)cc(c23)N[C@@H]1c1ccc(F)cc1`, the viability, T/C (compound 0.000316 µM) was 87.9% and 91% and 92%, the viability, T/C (compound 0.001 µM) was 97.2% and 98.2% and 79.8% and the viability, T/C (compound 0.00316 µM) was 99.3% and 92.3% and 101%. For the same compound, the viability, T/C (compound 0.01 µM) was 82.6% and 96.8% and 94.9%, the viability, T/C (compound 0.0316 µM) was 90.9% and 81.5% and 68.7% and the viability, T/C (compound 0.1 µM) was 96.8% and 78.6% and 84.5%. For the same compound, the IC50 (curve of compound) was > 100 nM.
`COc1c(OCCCN2CCOCC2)ccc2c3n(c(=NC(=O)c4cnc(N)nc4)nc12)CCN3` + CNC(C)C(=O)NC1CN(S(=O)(=O)c2cccc(S(=O)(=O)N3CCC4CCC(C(=O)NC(c5ccccc5)c5ccccc5)N4C(=O)C(NC(=O)C(C)NC)C3)c2)CCC2CCC(C(=O)NC(c3ccccc3)c3ccccc3)N2C1=O was tested, and the IC50 [1] was 320 nM, the IC50 [2] was 162 nM and the IC50 [3] was 156 nM. The IC50 [4] was 132 nM, the IC50 [5] was 237 nM and the IC50 [6] was 259 nM. The viability, T/C [7] was 78.1%, the viability, T/C [8] was 61% and the viability, T/C [9] was 68.8%. For the same compound, the viability, T/C [10] was 65.4%, the viability, T/C [11] was 48.8% and the viability, T/C [12] was 27.9%. For the same compound, the viability, T/C [13] was 83.3%, the viability, T/C [14] was 89.9% and the viability, T/C [15] was 85.4%. The viability, T/C [16] was 53.9%, the viability, T/C [17] was 53.1% and the viability, T/C [18] was 34.4%. It also gave a viability, T/C [19] of 82.7%, a viability, T/C [20] of 78.9% and a viability, T/C [21] of 67%. The viability, T/C [22] was 54.9%, the viability, T/C [23] was 42.1% and the viability, T/C [24] was 27.6%. For the same compound, the viability, T/C [25] was 86.5%, the viability, T/C [26] was 68.2% and the viability, T/C [27] was 56.9%. For the same compound, the viability, T/C [28] was 62.5%, the viability, T/C [29] was 37.1% and the viability, T/C [30] was 39.1%. The viability, T/C [31] was 72.5%, the viability, T/C [32] was 88.5% and the viability, T/C [33] was 78.3%. For the same compound, the viability, T/C [34] was 65.9%, the viability, T/C [35] was 45.1% and the viability, T/C [36] was 36.4%. It also gave a viability, T/C [37] of 84.4%, a viability, T/C [38] of 64.9% and a viability, T/C [39] of 83.7%. It also gave a viability, T/C [40] of 48.3%, a viability, T/C [41] of 53.6% and a viability, T/C [42] of 32%.
With `CCN1CCN(Cc2ccc(Nc3ncc(F)c(-c4cc(F)c5nc(C)n(C(C)C)c5c4)n3)nc2)CC1` + CNC(C)C(=O)NC1CN(S(=O)(=O)c2cccc(S(=O)(=O)N3CCC4CCC(C(=O)NC(c5ccccc5)c5ccccc5)N4C(=O)C(NC(=O)C(C)NC)C3)c2)CCC2CCC(C(=O)NC(c3ccccc3)c3ccccc3)N2C1=O the IC50 [1] was > 1000 nM, the IC50 [2] was > 1000 nM and the IC50 [3] was > 1000 nM. For the same compound, the IC50 [4] was > 1000 nM, the IC50 [5] was > 1000 nM and the IC50 [6] was > 1000 nM. It also gave a viability, T/C [7] of 98%, a viability, T/C [8] of 99.6% and a viability, T/C [9] of 127%. The viability, T/C [10] was 115%, the viability, T/C [11] was 84.4% and the viability, T/C [12] was 70%. It also gave a viability, T/C [13] of 108%, a viability, T/C [14] of 107% and a viability, T/C [15] of 95.1%. It also gave a viability, T/C [16] of 64.7%, a viability, T/C [17] of 79.1% and a viability, T/C [18] of 93%. The viability, T/C [19] was 116%, the viability, T/C [20] was 112% and the viability, T/C [21] was 94.8%. The viability, T/C [22] was 96.6%, the viability, T/C [23] was 86.4% and the viability, T/C [24] was 77.2%. For the same compound, the viability, T/C [25] was 128%, the viability, T/C [26] was 120% and the viability, T/C [27] was 106%. The viability, T/C [28] was 89.3%, the viability, T/C [29] was 84.2% and the viability, T/C [30] was 76.3%. It also gave a viability, T/C [31] of 77%, a viability, T/C [32] of 91.7% and a viability, T/C [33] of 120%. For the same compound, the viability, T/C [34] was 67.6%, the viability, T/C [35] was 47.6% and the viability, T/C [36] was 71.7%. It also gave a viability, T/C [37] of 115%, a viability, T/C [38] of 117% and a viability, T/C [39] of 107%. The viability, T/C [40] was 80.1%, the viability, T/C [41] was 77.9% and the viability, T/C [42] was 83.4%.
